From patent US6313333A, “Multinuclear cationic platinum complexes with antitumor activity” (Setanta Therapeutics, Inc., priority 1997, dated 2001)

system: murine leukemia L1210; settings: l1210 cells

First: t,t,t,t,t-[PtCl(NH3)2 H2 N--(CH2)6 --NH2 Pt--(NH3)2 H2 N--(CH2)6 --NH2 Pt(NH3)2 H2 N--(CH2)6 --NH2 Pt(NH3)2 H2 N--(CH2)6 --NH2 PtCl(NH3)2 ]^+8.8Cl^-
Second: t,t-[PtCl(NH3)2 H2 N--(CH2)6 --NH2 PtCl(NH3)2 ]^+2.2NO3^-
The “IC50, "in vitro" cytotoxic activity against murine leukemia L1210” value of the first is 7.7-fold lower: 0.3 µg/mL for the first, 2.3 µg/mL for the second.

For `N.N.N.N.N.N.NCCCCCCN.NCCCCCCN.O=[N+]([O-])[O-].O=[N+]([O-])[O-].O=[N+]([O-])[O-].O=[N+]([O-])[O-].[Cl-].[Cl-].[Pt+2].[Pt+2].[Pt+2]` [t,t,t-[PtCl(NH3)2 H2 N(CH2)6 NH2 Pt(NH3)2 H2 N(CH2)6 NH2 PtCl(NH3)2]^+4.4NO3^-], the “IC50, "in vitro" cytotoxic activity against murine leukemia L1210” value was 0.38 µg/mL.
